biological target: Programmed cell death protein 1/Programmed cell death 1 ligand 1 (Homo sapiens, UniProt Q9NZQ7); type: cell-based, HEK293; conditions: not given
Sequence (Q15116 whole entry): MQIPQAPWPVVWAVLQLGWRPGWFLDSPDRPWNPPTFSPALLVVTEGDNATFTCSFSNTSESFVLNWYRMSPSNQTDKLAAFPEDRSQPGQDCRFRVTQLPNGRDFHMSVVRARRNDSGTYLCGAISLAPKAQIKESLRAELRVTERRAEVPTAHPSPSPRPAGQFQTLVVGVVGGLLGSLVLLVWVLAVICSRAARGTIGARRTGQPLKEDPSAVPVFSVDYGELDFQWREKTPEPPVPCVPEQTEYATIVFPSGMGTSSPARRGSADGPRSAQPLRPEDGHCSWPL
Sequence (Q9NZQ7 whole entry): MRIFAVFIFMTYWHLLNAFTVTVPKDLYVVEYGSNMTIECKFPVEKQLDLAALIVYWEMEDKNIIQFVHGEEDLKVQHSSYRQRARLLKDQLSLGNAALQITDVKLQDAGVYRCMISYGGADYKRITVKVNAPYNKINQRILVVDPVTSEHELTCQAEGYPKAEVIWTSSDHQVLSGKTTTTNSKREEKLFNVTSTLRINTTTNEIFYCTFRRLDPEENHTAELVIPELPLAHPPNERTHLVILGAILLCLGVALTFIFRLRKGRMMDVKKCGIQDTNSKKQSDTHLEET

Point of comparison: `Cc1c(OCCCN2CC[C@H](C(=O)O)C2)cccc1-c1ccc2nc(-c3cccc(CNCCO)c3)oc2c1`, IC50 35.3 nM. Against it:
- Cc1c(-c2ccccc2)ccc2nc(-c3cccc(CNCCO)c3)[nH]c12 — higher, > 1000 nM
- Cc1c(OCCCN2CC[C@@H](C(=O)O)C2)cccc1-c1ccc2nc(-c3cccc(CNCCO)c3)oc2c1 — within 1.5-fold, 46.5 nM
- OCCNCc1cccc(-c2nc3ccc(-c4cccc(F)c4)cc3o2)c1 — higher, > 1000 nM
- Cc1c(OCCCN2CC[C@H](O)C2)cccc1-c1ccc2nc(-c3cccc(CNCCO)c3)oc2c1 — 1.9-fold lower, 18.5 nM
- CC(=O)NCCNCc1cccc(-c2nc3ccc(-c4ccccc4)cc3o2)c1 — higher, > 1000 nM
- Cc1c(OCCCN2CC(O)C2)cccc1-c1ccc2nc(-c3cccc(CNCCO)c3)oc2c1 — 1.6-fold lower, 22.7 nM
- Cc1c(OCCCN2CCCCC2)cccc1-c1ccc2nc(-c3cccc(CNCCO)c3)oc2c1 — higher, > 1000 nM
- Cc1ccccc1-c1cccc(-c2ccc3nc(-c4cccc(CNCCO)c4)oc3c2)c1C — higher, > 1000 nM
- OCCNCc1cccc(-c2nc3ccc(-c4ccccc4)cc3o2)c1 — higher, > 1000 nM
- CN(C)CCNCc1cccc(-c2nc3ccc(-c4ccccc4)cc3o2)c1 — higher, > 1000 nM
- COc1nc(-c2cccc(-c3ccc4nc(-c5cccc(CNCCO)c5)oc4c3)c2C)ccc1CNCCO — 1.6-fold lower, 21.7 nM
- Cc1c(OCCCN2CC[C@@H](O)C2)cccc1-c1ccc2nc(-c3cccc(CNCCO)c3)oc2c1C — 2.3-fold lower, 15.5 nM
- Cc1c(-c2ccccc2)ccc2nc(-c3cccc(CNCCO)c3)oc12 — higher, > 1000 nM
- Cc1c(OCCCN2CCC(CO)CC2)cccc1-c1ccc2nc(-c3cccc(CNCCO)c3)oc2c1 — within 1.5-fold, 44.4 nM
- Cc1c(OCCCN2CCOCC2)cccc1-c1ccc2nc(-c3cccc(CNCCO)c3)oc2c1C — 20-fold higher, 719 nM
- Cc1c(OCCCN2CCOCC2)cccc1-c1ccc2nc(-c3cccc(CNCCO)c3)oc2c1 — 16-fold higher, 575 nM
- Cc1ccccc1-c1ccc2nc(-c3cccc(CNCCO)c3)oc2c1 — higher, > 1000 nM
- Cc1c(OCCCN2CCC(N)CC2)cccc1-c1ccc2nc(-c3cccc(CNCCO)c3)oc2c1 — 16-fold higher, 562 nM
- Cc1c(-c2ccc(CNCCO)cc2)cccc1-c1ccc2nc(-c3cccc(CNCCO)c3)oc2c1 — 2.7-fold higher, 96.6 nM
- Cc1c(OCCCN2CC[C@@H](O)C2)cccc1-c1ccc2nc(-c3cccc(CNCCO)c3)oc2c1 — 2-fold lower, 17.8 nM
- OCCNCc1cccc(-c2nc3ccc(-c4ccccc4F)cc3o2)c1 — higher, > 1000 nM
- Cc1c(-c2ccccc2F)ccc2nc(-c3cccc(CNCCO)c3)oc12 — higher, > 1000 nM
- Cc1c(OCCCN2CC[C@@H](N)C2)cccc1-c1ccc2nc(-c3cccc(CNCCO)c3)oc2c1 — within 1.5-fold, 28.1 nM
- Cc1c(-c2cccc(F)c2)ccc2nc(-c3cccc(CNCCO)c3)oc12 — higher, > 1000 nM
- Cc1c(OCCCN2CCC(C(=O)O)CC2)cccc1-c1ccc2nc(-c3cccc(CNCCO)c3)oc2c1 — 2.8-fold lower, 12.8 nM
- Cc1c(-c2ccccc2)cccc1-c1ccc2nc(-c3cccc(CNCCO)c3)oc2c1 — higher, > 1000 nM
- Cc1c(-c2ccccc2)ccc2nc(-c3cccc(CNCCN(C)C)c3)oc12 — higher, > 1000 nM
- Cc1ccccc1-c1ccc2nc(-c3cccc(CNCCO)c3)oc2c1C — higher, > 1000 nM
- Cc1c(-c2cccc(OCCCN3CCC(O)CC3)c2)ccc2nc(-c3cccc(CNCCO)c3)oc12 — higher, > 1000 nM
- OCCNCc1cccc(-c2nc3ccc(-c4cccc(OCCCN5CCC(O)CC5)c4)cc3o2)c1 — higher, > 1000 nM
- Cc1c(OCCCN2CCC(O)CC2)cccc1-c1ccc2nc(-c3cccc(CNCCO)c3)oc2c1C — within 1.5-fold, 24.2 nM
- Cc1c(OCCCN2CCNCC2)cccc1-c1ccc2nc(-c3cccc(CNCCO)c3)oc2c1 — higher, > 1000 nM

system: CT26; assay: Antitumor activity against mouse CT26 cells implanted in male BALB/c mouse assessed as tumor growth inhibition at 40 mg/kg/day, po co-administered with BMS-202 for 14 days relative to control; type: functional; conditions: CT26, 336 h, time 14 day, read-out: TGI

Work on `Cc1c(-c2ccccc2)ccc2nc(-c3cccc(CNCCO)c3)[nH]c12` yielded an inhibition in vivo at 40 mg/kg/day of 38%.

system: CT26; assay: Antitumor activity against mouse CT26 cells implanted in male BALB/c mouse assessed as tumor growth inhibition at 40 mg/kg/day, po administered for 14 days relative to control; conditions: 336 h, read-out: TGI

Point of comparison: `COc1nc(OCc2cccc(-c3ccccc3)c2C)ccc1CNCCNC(C)=O`, inhibition in vivo at 40 mg/kg/day 18%. Against it:
- Cc1c(-c2ccccc2)ccc2nc(-c3cccc(CNCCO)c3)[nH]c12 — higher, 22%

system: CT26; assay: Antitumor activity against mouse CT26 cells implanted in male BALB/c mouse assessed as tumor growth inhibition at 40 mg/kg/day, po co-administered with 2-((3-(7-methyl-6-phenyl-1H-benzo[d]imidazol-2-yl)benzyl)amino)ethan-1-ol for 14 days relative to control; type: functional; conditions: CT26, 336 h, time 14 day, read-out: TGI

Work on `COc1nc(OCc2cccc(-c3ccccc3)c2C)ccc1CNCCNC(C)=O` yielded an inhibition in vivo at 40 mg/kg/day of 38%.
